# Read-outs that look alike come from different tables or passages of the source.
# Key:
# [1] = Ketoprofen added to adhesive solutions, mixed overnight, dissolved vs dispersed; type: physicochemical; details: 15% on a solids basis
# [2] = for state of ketoprofen in dried adhesive film: dried 30 minutes at 60° C.
# [3] = Cholesteryl dodecanoate added to adhesive solutions, mixed overnight at room temperature; type: physicochemical; details: 1% on a solids basis
# Description: Cholesteryl dodecanoate, a model for a highly lipophilic drug, was added at 1% on a solids basis to the solutions of Example 7 and 8. These were then mixed overnight at room temperature.
# [4] = film from conventional adhesive solution (Comparative Example 2)
Structure (SMILES),"dissolution of ketoprofen in adhesive solution ([1]; adhesive solution of Example 1 (cyclohexane, δ 16.8), tube B)","dissolution of ketoprofen in adhesive solution ([1]; adhesive solution of Example 2 (δ 19.0), tube A)","enthalpy of fusion by DSC [2, 4]","state of ketoprofen in dried adhesive film [2, 4]",state of ketoprofen in dried adhesive film ([2]; film from cyclohexane adhesive solution (Example 1)),dissolution of model active in adhesive solution ([3]; solution of Example 7 (ethanol)),dissolution of model active in adhesive solution ([3]; solution of Example 8 (δ 19.4))
CC(C(=O)O)c1cccc(C(=O)c2ccccc2)c1 (stereo not shown) [ketoprofen],most of the ketoprofen remained as a dispersed solid,completely dissolved,zero,no visible crystals,undissolved crystals,–,–
CCCCCCCCCCCC(=O)O[C@H]1CC[C@@]2(C)C(=CC[C@H]3[C@@H]4CC[C@H]([C@H](C)CCCC(C)C)[C@@]4(C)CC[C@@H]32)C1 [Cholesteryl dodecanoate],–,–,–,–,–,large quantity of undissolved model active,completely soluble

# Source: US20090130188A9, “Acrylic pressure sensitive adhesives” (National Starch and Chemical Investment Holding Company, priority 2005, published 2009)
